# Test results as given in patent US20240398805A1, “QUINAZOLINE DERIVED COMPOUNDS AS EGFR INHIBITORS AND THEIR USES THEREOF” (ACCUTAR BIOTECHNOLOGY INC., priority 2021, published 2024).
# Tests used:
# Format in all cases: cell-based
# HCC827 cells = test: Cell growth inhibition (CellTiter-Glo, 3 days) in HCC827; conditions: Homo sapiens, 72 h, 3 days after administration
# How it was run: (§1)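 HCC827 cells were plated at 5000 cells/well in RPMI with 10% FBS, and A431 cells at the same density in DMEM with 10% FBS. After overnight attachment, compounds were added at various concentrations. Luminescence was recorded after plates were equilibrated to room temperature and incubated 10 min with reagent.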
# [1] = system: HCC827-SVD cells (human EGFR exon 20 insertion mutant D770_N771 insSVD); test: Cell growth inhibition (CellTiter-Glo, 3 days) in HCC827-SVD; conditions: 72 h, 3 days after administration
# How it was run: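 HCC827 cells carrying lentiviral codon-optimized EGFR D770_N771 insSVD, with endogenous EGFR knocked out by CRISPR (single clone), seeded at 5000 cells/well in RPMI with 10% FBS. Viability read by CellTiter-Glo luminescence.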
# [2] = system: HCC827-ASV cells (human EGFR exon 20 insertion mutant A769_D770insASV); test: Cell growth inhibition (CellTiter-Glo, 3 days) in HCC827-ASV; conditions: 72 h, 3 days after administration
# How it was run: (§2)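 HCC827 cells lentivirally transduced with codon-optimized ASV or YVMA insertion mutants were seeded at 5000 cells/well in RPMI with 10% FBS and incubated overnight. Compound was added at various concentrations from a 10× stock in medium, with 3 days' incubation. Viability read by CellTiter-Glo luminescence.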
# [3] = system: HCC827-YVMA cells (human ERBB2 exon20 insertion mutant A775_G776ins YVMA); test: Cell growth inhibition (CellTiter-Glo, 3 days) in HCC827-YVMA; conditions: 72 h, 3 days after administration
# How it was run: as §2
# A431 cells = test: Cell growth inhibition (CellTiter-Glo, 3 days) in A431; conditions: Homo sapiens, A-431, 72 h, 3 days after administration
# How it was run: as §1
GI50 (HCC827 cells),GI50 [1],GI50 [2],GI50 [3],GI50 (A431 cells),Structure (SMILES)
300 to 600 nM,< 30 nM,< 30 nM,< 30 nM,≥ 1000 nM,"C=CC(=O)N1CCC(Nc2cc3c(Nc4ccc(Oc5ccnc(N6C[C@H](OC)[C@H](OC)C6)c5)cc4F)ncnc3cc2OC)CC1 [Example 189, 1-(4-((4-((4-((2-((3R,4S)-3,4-dimethoxypyrrolidin-1-yl)pyridin-4-yl)oxy)-2-fluorophenyl)amino)-7-methoxyquinazolin-6-yl)amino)piperidin-1-yl)prop-2-en-1-one]"
30 to 60 nM,< 30 nM,< 30 nM,< 30 nM,300 to 600 nM,"C=CC(=O)N1CCC(Nc2cc3c(Nc4ccc(Oc5ccnc(N6C[C@H]7COC[C@H]7C6)c5)cc4F)ncnc3cc2OC)CC1 [Example 190, 1-(4-((4-((2-fluoro-4-((2-((3aR,6aS)-tetrahydro-1H-furo[3,4-c]pyrrol-5(3H)-yl)pyridin-4-yl)oxy)phenyl)amino)-7-methoxyquinazolin-6-yl)amino)piperidin-1-yl)prop-2-en-1-one]"
60 to 100 nM,< 30 nM,< 30 nM,< 30 nM,100 to 300 nM,"C=CC(=O)N1CCC(Nc2cc3c(Nc4ccc(Oc5ccnc(-c6nc(C)ns6)c5)cc4F)ncnc3cc2OC)CC1 [Example 192, 1-(4-((4-((2-fluoro-4-((2-(3-methyl-1,2,4-thiadiazol-5-yl)pyridin-4-yl)oxy)phenyl)amino)-7-methoxyquinazolin-6-yl)amino)piperidin-1-yl)prop-2-en-1-one]"
60 to 100 nM,< 30 nM,< 30 nM,< 30 nM,300 to 600 nM,"C=CC(=O)N1CCC(Nc2cc3c(Nc4ccc(Oc5ccnc(N6CCC(F)(F)C6)c5)cc4F)ncnc3cc2OC)CC1 [Example 194, 1-(4-((4-((4-((2-(3,3-difluoropyrrolidin-1-yl)pyridin-4-yl)oxy)-2-fluorophenyl)amino)-7-methoxyquinazolin-6-yl)amino)piperidin-1-yl)prop-2-en-1-one]"
100 to 300 nM,< 30 nM,< 30 nM,< 30 nM,600 to 1000 nM,"C=CC(=O)N1CCC(Nc2cc3c(Nc4ccc(Oc5ccnc(N6CC[C@@H](F)C6)c5)cc4F)ncnc3cc2OC)CC1 [Example 195, (R)-1-(4-((4-((2-fluoro-4-((2-(3-fluoropyrrolidin-1-yl)pyridin-4-yl)oxy)phenyl)amino)-7-methoxyquinazolin-6-yl)amino)piperidin-1-yl)prop-2-en-1-one]"
60 to 100 nM,< 30 nM,< 30 nM,< 30 nM,100 to 300 nM,"C=CC(=O)N1CCC(Nc2cc3c(Nc4ccc(Oc5ccnc(N6CC[C@H](F)C6)c5)cc4F)ncnc3cc2OC)CC1 [Example 196, (S)-1-(4-((4-((2-fluoro-4-((2-(3-fluoropyrrolidin-1-yl)pyridin-4-yl)oxy)phenyl)amino)-7-methoxyquinazolin-6-yl)amino)piperidin-1-yl)prop-2-en-1-one]"
60 to 100 nM,< 30 nM,< 30 nM,< 30 nM,300 to 600 nM,"C=CC(=O)N1CCC(Nc2cc3c(Nc4ccc(Oc5ccnc(N6CC[C@@H](C)C6)c5)cc4F)ncnc3cc2OC)CC1 [Example 197, (R)-1-(4-((4-((2-fluoro-4-((2-(3-methylpyrrolidin-1-yl)pyridin-4-yl)oxy)phenyl)amino)-7-methoxyquinazolin-6-yl)amino)piperidin-1-yl)prop-2-en-1-one]"
30 to 60 nM,< 30 nM,< 30 nM,< 30 nM,600 to 1000 nM,"C=CC(=O)N1CCC(Nc2cc3c(Nc4ccc(Oc5ccnc(N6CC[C@H](C)C6)c5)cc4F)ncnc3cc2OC)CC1 [Example 198, (S)-1-(4-((4-((2-fluoro-4-((2-(3-methylpyrrolidin-1-yl)pyridin-4-yl)oxy)phenyl)amino)-7-methoxyquinazolin-6-yl)amino)piperidin-1-yl)prop-2-en-1-one]"

# Further lines, the compound ahead of its results:
Structure (SMILES),GI50 (HCC827 cells),GI50 [1],GI50 [2],GI50 [3],GI50 (A431 cells)
"C=CC(=O)N1CCC(Nc2cc3c(Nc4ccc(Oc5ccnc(N6CCN(C)[C@H](C)C6)c5)cc4F)ncnc3cc2OC)CC1 [Example 180, (R)-1-(4-((4-((4-((2-(3,4-dimethylpiperazin-1-yl)pyridin-4-yl)oxy)-2-fluorophenyl)amino)-7-methoxyquinazolin-6-yl)amino)piperidin-1-yl)prop-2-en-1-one]",≥ 1000 nM,30 to 60 nM,30 to 60 nM,30 to 60 nM,≥ 1000 nM
"C=CC(=O)N1CCC(Nc2cc3c(Nc4ccc(Oc5ccnc(C(=O)N(C)C)c5)cc4F)ncnc3cc2OC)CC1 [Example 182, 4-(4-((6-((1-acryloylpiperidin-4-yl)amino)-7-methoxyquinazolin-4-yl)amino)-3-fluorophenoxy)-N,N-dimethylpicolinamide]",600 to 1000 nM,600 to 1000 nM,600 to 1000 nM,300 to 600 nM,≥ 1000 nM
"C=CC(=O)N1CCC(Nc2cc3c(Nc4ccc(Oc5ccnc(NC6COC6)c5)cc4F)ncnc3cc2OC)CC1 [Example 183, 1-(4-((4-((2-fluoro-4-((2-(oxetan-3-ylamino)pyridin-4-yl)oxy)phenyl)amino)-7-methoxyquinazolin-6-yl)amino)piperidin-1-yl)prop-2-en-1-one]",≥ 1000 nM,≥ 1000 nM,≥ 1000 nM,≥ 1000 nM,≥ 1000 nM
"C=CC(=O)N1CCC(Nc2cc3c(Nc4ccc(Oc5ccnc(NC6CCN(C)CC6)c5)cc4F)ncnc3cc2OC)CC1 [Example 184, 1-(4-((4-((2-fluoro-4-((2-((1-methylpiperidin-4-yl)amino)pyridin-4-yl)oxy)phenyl)amino)-7-methoxyquinazolin-6-yl)amino)piperidin-1-yl)prop-2-en-1-one]",≥ 1000 nM,≥ 1000 nM,≥ 1000 nM,≥ 1000 nM,≥ 1000 nM
"C=CC(=O)N1CCC(Nc2cc3c(Nc4ccc(Oc5ccnc(C6CCN(C)CC6)c5)cc4F)ncnc3cc2OC)CC1 [Example 186, 1-(4-((4-((2-fluoro-4-((2-(1-methylpiperidin-4-yl)pyridin-4-yl)oxy)phenyl)amino)-7-methoxyquinazolin-6-yl)amino)piperidin-1-yl)prop-2-en-1-one]",600 to 1000 nM,≥ 1000 nM,≥ 1000 nM,≥ 1000 nM,≥ 1000 nM
"C=CC(=O)N1CCC(Nc2cc3c(Nc4ccc(Oc5ccnc(N6CCN(C(C)C)CC6)c5)cc4F)ncnc3cc2OC)CC1 [Example 187, 1-(4-((4-((2-fluoro-4-((2-(4-isopropylpiperazin-1-yl)pyridin-4-yl)oxy)phenyl)amino)-7-methoxyquinazolin-6-yl)amino)piperidin-1-yl)prop-2-en-1-one]",≥ 1000 nM,100 to 300 nM,100 to 300 nM,300 to 600 nM,≥ 1000 nM
"C=CC(=O)N1CCC(Oc2cc3c(Nc4ccc(Oc5ccnc(N6CC7C(C6)C7(F)F)c5)cc4F)ncnc3cc2OC)CC1 (stereo not drawn) [Example 188, 1-(4-((4-((4-((2-(6,6-difluoro-3-azabicyclo[3.1.0]hexan-3-yl)pyridin-4-yl)oxy)-2-fluorophenyl)amino)-7-methoxyquinazolin-6-yl)oxy)piperidin-1-yl)prop-2-en-1-one]",60 to 100 nM,< 30 nM,< 30 nM,30 to 60 nM,100 to 300 nM
